Source: PubChem BioAssay AID1259407 (Chemical Carcinogenesis Research Information System (CCRIS), 2018)
Activity calls are given as the source filed them. No rule for the calls is given here.

Test system: CCRIS mutagenicity, Ames/micronucleus/aberration tests
Assay: CCRIS mutagenicity studies
[1] = Test System: AMES SALMONELLA TYPHIMURIUM, Strain/Indicator: TA98, Metabolic Activation: NONE, Method: PREINCUBATION
[2] = Test System: AMES SALMONELLA TYPHIMURIUM, Strain/Indicator: TA100, Metabolic Activation: NONE, Method: PREINCUBATION
[3] = Test System: AMES SALMONELLA TYPHIMURIUM, Strain/Indicator: TA98, Metabolic Activation: NONE, Method: STANDARD PLATE
[4] = Test System: AMES SALMONELLA TYPHIMURIUM, Strain/Indicator: TA100, Metabolic Activation: NONE, Method: STANDARD PLATE

In the case of `CC(=O)NC[C@H](O)COc1cccc2ccccc12`, the mutagenic call (Test System: AMES SALMONELLA TYPHIMURIUM, Strain/Indicator: TA98, Metabolic Activation: RAT, LIVER, S-9, AROCLOR 1254, Method: PREINCUBATION) is reported as “inactive; negative”, the mutagenic call (Test System: AMES SALMONELLA TYPHIMURIUM, Strain/Indicator: TA100, Metabolic Activation: RAT, LIVER, S-9, AROCLOR 1254, Method: PREINCUBATION) is reported as “inactive; negative” and the mutagenic call (Test System: AMES SALMONELLA TYPHIMURIUM, Strain/Indicator: TA104, Metabolic Activation: RAT, LIVER, S-9, AROCLOR 1254, Method: PREINCUBATION) is reported as “active; positive”. The mutagenic call (Test System: AMES SALMONELLA TYPHIMURIUM, Strain/Indicator: TA1535, Metabolic Activation: RAT, LIVER, S-9, AROCLOR 1254, Method: PREINCUBATION) was “inactive; negative”, the mutagenic call (Test System: AMES SALMONELLA TYPHIMURIUM, Strain/Indicator: TA1538, Metabolic Activation: RAT, LIVER, S-9, AROCLOR 1254, Method: PREINCUBATION) was “inactive; negative” and the mutagenic call (Test System: AMES SALMONELLA TYPHIMURIUM, Strain/Indicator: YG1021, Metabolic Activation: RAT, LIVER, S-9, AROCLOR 1254, Method: PREINCUBATION) was “inactive; negative”. The mutagenic call (Test System: AMES SALMONELLA TYPHIMURIUM, Strain/Indicator: YG1024, Metabolic Activation: RAT, LIVER, S-9, AROCLOR 1254, Method: PREINCUBATION) was “inactive; negative”, the mutagenic call (Test System: AMES SALMONELLA TYPHIMURIUM, Strain/Indicator: YG1026, Metabolic Activation: RAT, LIVER, S-9, AROCLOR 1254, Method: PREINCUBATION) was “inactive; negative” and the mutagenic call (Test System: AMES SALMONELLA TYPHIMURIUM, Strain/Indicator: YG1029, Metabolic Activation: RAT, LIVER, S-9, AROCLOR 1254, Method: PREINCUBATION) was “active; positive”. The mutagenic call (Test System: AMES SALMONELLA TYPHIMURIUM, Strain/Indicator: YG1041, Metabolic Activation: RAT, LIVER, S-9, AROCLOR 1254, Method: PREINCUBATION) was “inactive; negative”, the mutagenic call (Test System: AMES SALMONELLA TYPHIMURIUM, Strain/Indicator: YG1042, Metabolic Activation: RAT, LIVER, S-9, AROCLOR 1254, Method: PREINCUBATION) was “inactive; negative” and the mutagenic call (Test System: AMES SALMONELLA TYPHIMURIUM, Strain/Indicator: YG3003, Metabolic Activation: RAT, LIVER, S-9, AROCLOR 1254, Method: PREINCUBATION) was “active; positive”.

In the case of `OCCCCCl`, the mutagenic call [1] is reported as “inactive; negative”, the mutagenic call [2] is reported as “active; positive” and the mutagenic call (Test System: AMES SALMONELLA TYPHIMURIUM, Strain/Indicator: TA100, Metabolic Activation: RAT, LIVER, S-9, KANECHLOR 500, Method: PREINCUBATION) is reported as “active; positive”.

In the case of `C1=CC2OC2C=CO1` (configuration not stated), the mutagenic call [3] is reported as “inactive; negative”, the mutagenic call (Test System: AMES SALMONELLA TYPHIMURIUM, Strain/Indicator: TA98, Metabolic Activation: RAT, LIVER, S-9, PHENOBARBITAL, Method: STANDARD PLATE) is reported as “inactive; negative” and the mutagenic call [4] is reported as “inactive; negative”. The mutagenic call (Test System: AMES SALMONELLA TYPHIMURIUM, Strain/Indicator: TA100, Metabolic Activation: RAT, LIVER, S-9, PHENOBARBITAL, Method: STANDARD PLATE) was “inactive; negative” and the mutagenic call (Test System: AMES SALMONELLA TYPHIMURIUM, Strain/Indicator: TM677/8-AZAGUANINE, Metabolic Activation: NONE, Method: STANDARD PLATE) was “inactive; negative”.

`O=C(Cl)CCl` was tested, and the mutagenic call (End Point: IN VITRO CHROMOSOMAL ABERRATIONS, Test System: CHINESE HAMSTER LUNG (CHL), Metabolic Activation: NONE) was “inactive; negative” and the mutagenic call (End Point: IN VITRO CHROMOSOMAL ABERRATIONS, Test System: CHINESE HAMSTER LUNG (CHL), Metabolic Activation: RAT, LIVER, S-9, KC-400) was “inactive; negative”.

For `O=Nc1ccc(O)cc1`, the mutagenic call (Test System: AMES SALMONELLA TYPHIMURIUM, Strain/Indicator: TA97, Metabolic Activation: HAMSTER, LIVER, S-9, AROCLOR 1254 (10 OR 30%), Method: PREINCUBATION) was “inactive; negative”, the mutagenic call (Test System: AMES SALMONELLA TYPHIMURIUM, Strain/Indicator: TA97, Metabolic Activation: NONE, Method: PREINCUBATION) was “inactive; negative” and the mutagenic call (Test System: AMES SALMONELLA TYPHIMURIUM, Strain/Indicator: TA97, Metabolic Activation: RAT, LIVER, S-9, AROCLOR 1254 (10 OR 30%), Method: PREINCUBATION) was “inactive; negative”. The mutagenic call (Test System: AMES SALMONELLA TYPHIMURIUM, Strain/Indicator: TA98, Metabolic Activation: HAMSTER, LIVER, S-9, AROCLOR 1254 (10%), Method: PREINCUBATION) was “inactive; negative”, the mutagenic call (Test System: AMES SALMONELLA TYPHIMURIUM, Strain/Indicator: TA98, Metabolic Activation: HAMSTER, LIVER, S-9, AROCLOR 1254 (30%), Method: PREINCUBATION) was “active; positive” and the mutagenic call [1] was “active; positive”. For the same molecule, the mutagenic call (Test System: AMES SALMONELLA TYPHIMURIUM, Strain/Indicator: TA98, Metabolic Activation: RAT, LIVER, S-9, AROCLOR 1254 (10 OR 30%), Method: PREINCUBATION) was “inactive; negative”, the mutagenic call (Test System: AMES SALMONELLA TYPHIMURIUM, Strain/Indicator: TA100, Metabolic Activation: HAMSTER, LIVER, S-9, AROCLOR 1254 (10%), Method: PREINCUBATION) was “inactive; negative” and the mutagenic call (Test System: AMES SALMONELLA TYPHIMURIUM, Strain/Indicator: TA100, Metabolic Activation: HAMSTER, LIVER, S-9, AROCLOR 1254 (30%), Method: PREINCUBATION) was “active; positive”. The mutagenic call [2] was “inactive; negative”, the mutagenic call (Test System: AMES SALMONELLA TYPHIMURIUM, Strain/Indicator: TA100, Metabolic Activation: RAT, LIVER, S-9, AROCLOR 1254 (10 OR 30%), Method: PREINCUBATION) was “inactive; negative” and the mutagenic call (Test System: AMES SALMONELLA TYPHIMURIUM, Strain/Indicator: TA1535, Metabolic Activation: HAMSTER, LIVER, S-9, AROCLOR 1254 (10%), Method: PREINCUBATION) was “inactive; negative”. The mutagenic call (Test System: AMES SALMONELLA TYPHIMURIUM, Strain/Indicator: TA1535, Metabolic Activation: NONE, Method: PREINCUBATION) was “inactive; negative” and the mutagenic call (Test System: AMES SALMONELLA TYPHIMURIUM, Strain/Indicator: TA1535, Metabolic Activation: RAT, LIVER, S-9, AROCLOR 1254 (10%), Method: PREINCUBATION) was “inactive; negative”.

In the case of `CC(C)(C)N.CC(C)(C)N.[Cl][Pt][Cl]`, the mutagenic call (Test System: AMES SALMONELLA TYPHIMURIUM, Strain/Indicator: TA92, Metabolic Activation: NONE, Method: STANDARD PLATE) is reported as “inactive; negative”, the mutagenic call [3] is reported as “active; positive” and the mutagenic call [4] is reported as “active; positive”. For the same molecule, the mutagenic call (Test System: AMES SALMONELLA TYPHIMURIUM, Strain/Indicator: TA2410, Metabolic Activation: NONE, Method: STANDARD PLATE) was “active; positive”.

In the case of `c1ccc2c(c1)ccc1nc3ccc4c(c3cc12)CCCC4`, the mutagenic call (Test System: AMES SALMONELLA TYPHIMURIUM, Strain/Indicator: TA98, Metabolic Activation: GUINEA PIG, LIVER, S-9, 3-METHYLCHOLANTHRENE, Method: STANDARD PLATE) is reported as “inactive; negative” and the mutagenic call (Test System: AMES SALMONELLA TYPHIMURIUM, Strain/Indicator: TA100, Metabolic Activation: GUINEA PIG, LIVER, S-9, 3-METHYLCHOLANTHRENE, Method: STANDARD PLATE) is reported as “active; positive”.
